“Also recorded” adds a separate entry of the source.
Legend:
[1] = Oxygen release (dissolved oxygen) from POGS encapsulated in alginate microbeads in a hypoxic chamber; format: physicochemical; details: for duration of oxygen release from alginate microbeads containing MgO2 in the presence of antioxidant: 2.5% MPO in alginate microcapsules, 100 U/ml catalase, 1.5 mM Trolox, compared to MPO alone
Description: FIG. 1: Comparison of CaO2 and MgO2 release over six days, dissolved oxygen readings are an average of 5 sample groups with 1500 microcapsules each; measurements were taken in a hypoxic chamber.
FIG. 2: Effect of antioxidants on oxygen release from alginate microcapsules with 2.5% MPO.
Comparison of CPO and MPO: We first examined the oxygen release profiles of two POGS, CPO and MPO encapsulated in alginate microbeads in the absence or presence of catalase (100 U/ml), and the antioxidant, Trolox (1.5 mM). Sieves were used to select both MPO and CPO particles equal to and less than 25 μm in diameter. Then 0.5% by weight solution of 1.5% LVM and either CPO or MPO were prepared respectively. These solutions were then extruded through an encapsulating device forming microspheres measuring […] in diameter, which were allowed to crosslink for 15 minutes in 1.1% CaCl2 solution. After cross-linking, the microbeads were rinsed with HBSS and placed into 50 ml conical tubes (BD, USA) containing 20 mL ultra pure water with 10 mM HEPES (pH=7.4). Tubes were placed in a 1% oxygen environment in a hypoxic glovebox system (Biospherix, USA) with the caps of the tubes removed allowing for gas exchange. Dissolved oxygen readings were taken every 24 hours for 6 days using an Orion 4-star DO Probe (Thermo Science).
Oxygen release from MPO Alginate Capsules: On the basis of a better release profile, we then selected MgO2 for further studies. First the release profiles of various concentrations of MPO were measured. Using the same technique as described above 0%, 0.25%, 0.5%, 1%, 1.5%, 2.0%, 2.5%, 5%, 10%, 20%, 30%, and 40% (by weight) solutions of MPO in 1.5% UP LVM were prepared, with particles larger than 25 μM sieved out of the solution prior to encapsulation. […] Dissolved oxygen levels were measured for up to 250 hours. Using the same methodology we then assessed the effect of the antioxidants, Catalase and Trolox, on oxygen release. […] Capsules were prepared and dissolved oxygen levels were measured as described earlier. […] Dissolved oxygen levels were measured for up to 250 hours.

[2] = system: islet cell functional mass; details: used in the isolation or culture medium; cited from earlier work
Isolated human islets = test: MTS viability assay of islets co-cultured with MPO and antioxidants; format: cell-based
Method: FIG. 4: Viability of islets co-cultured with MPO and antioxidants. Isolated human islets were co-cultured with 10 mM MPO for 2 days in normal culture conditions with the following antioxidants: 100 Units/mL Catalase, 1.5 mM Trolox and 30 μM MnTE-2-Pyp. After the two day culture period islet viabilty was determined with an MTS assay. Error bars represent standard deviation, n=5.
Previous studies have shown that the isolation process predisposes islets to subsequent damage and functional impairment and that an SOD mimicking catalytic antioxidant, MnTE-2-PyP (also called AEOL10113), developed by Drs.

Molecule: Cc1c(C)c2c(c(C)c1O)CCC(C)(C(=O)O)O2 (stereo not shown) [Trolox, 6-hydroxy-2,5,7,8-tetramethylchroman-2-carboxylic acid]
- duration of oxygen release from alginate microbeads containing MgO2 in the presence of antioxidant [1]: this effect is not observed; also recorded: no significant change

Molecule: CC[n+]1ccccc1-c1c2nc(c(-c3cccc[n+]3CC)c3ccc([n-]3)c(-c3cccc[n+]3CC)c3nc(c(-c4cccc[n+]4CC)c4ccc1[n-]4)C=C3)C=C2.[Mn+3] [MnTE-2-PyP, Mn (III) tetrakis (N-ethylpyridinium-2-yl) porphyrin]
- preservation of islet cell functional mass [2]: beneficial in preserving islet cell functional mass
- effect on viability of islets co-cultured with MPO (Isolated human islets; 10 mM MPO, 30 μM MnTE-2-Pyp, 2 days normal culture): counteracts the diminishing effect of MPO on islet viability
- viability of isolated human islets (Isolated human islets; added to islets in normal culture, 30 μM MnTE-2-Pyp, 2 days, n=5): significantly (p<0.05) enhances the viability

Molecule: [Mg+2].[O-][O-] [MPO, Magnesium Peroxide]
- release of oxygen ([1]; 0.5% by weight CPO or MPO in 1.5% LVM alginate microbeads, 1% oxygen environment, readings every 24 hours for 6 days): higher release of oxygen for up to five days compared to CPO
- effect of MPO on islet viability (Isolated human islets; 10 mM MPO, 2 days normal culture): diminishing effect

B1: catalase: Catalase (from bovine liver), peroxide decomposition catalyst (protein, UniProt P00432 2-527, looked up)
Catalase: ADNRDPASDQMKHWKEQRAAQKPDVLTTGGGNPVGDKLNSLTVGPRGPLLVQDVVFTDEMAHFDRERIPERVVHAKGAGAFGYFEVTHDITRYSKAKVFEHIGKRTPIAVRFSTVAGESGSADTVRDPRGFAVKFYTEDGNWDLVGNNTPIFFIRDALLFPSFIHSQKRNPQTHLKDPDMVWDFWSLRPESLHQVSFLFSDRGIPDGHRHMNGYGSHTFKLVNANGEAVYCKFHYKTDQGIKNLSVEDAARLAHEDPDYGLRDLFNAIATGNYPSWTLYIQVMTFSEAEIFPFNPFDLTKVWPHGDYPLIPVGKLVLNRNPVNYFAEVEQLAFDPSNMPPGIEPSPDKMLQGRLFAYPDTHRHRLGPNYLQIPVNCPYRARVANYQRDGPMCMMDNQGGAPNYYPNSFSAPEHQPSALEHRTHFSGDVQRFNSANDDNVTQVRTFYLKVLNEEQRKRLCENIAGHLKDAQLFIQKKAVKNFSDVHPEYGSRIQALLDKYNEEKPKNAVHTYVQHGSHLSAREKANL
- duration of oxygen release from alginate microbeads containing MgO2 in the presence of antioxidant [1]: significantly shortened
